According to ChEMBL document CHEMBL5209585, “FFN206 based assay for SLC18A2 using HEK-293 SLC18A2 OE cells” (2022):

Biological target: Synaptic vesicular amine transporter (Homo sapiens, UniProt Q05940)
Assay: Substrate uptake and inhibition of the Vesicular Amine Transporter 2 (VMAT2, SLC18A2) as assessed by uptake of a fluorescent substrate (FFN206) in HEK-293 JumpIN-SLC18A2 cells (PubChem AID: 1794817)
Type: functional, cell-based, HEK293

Chain of Synaptic vesicular amine transporter (Q05940 whole entry): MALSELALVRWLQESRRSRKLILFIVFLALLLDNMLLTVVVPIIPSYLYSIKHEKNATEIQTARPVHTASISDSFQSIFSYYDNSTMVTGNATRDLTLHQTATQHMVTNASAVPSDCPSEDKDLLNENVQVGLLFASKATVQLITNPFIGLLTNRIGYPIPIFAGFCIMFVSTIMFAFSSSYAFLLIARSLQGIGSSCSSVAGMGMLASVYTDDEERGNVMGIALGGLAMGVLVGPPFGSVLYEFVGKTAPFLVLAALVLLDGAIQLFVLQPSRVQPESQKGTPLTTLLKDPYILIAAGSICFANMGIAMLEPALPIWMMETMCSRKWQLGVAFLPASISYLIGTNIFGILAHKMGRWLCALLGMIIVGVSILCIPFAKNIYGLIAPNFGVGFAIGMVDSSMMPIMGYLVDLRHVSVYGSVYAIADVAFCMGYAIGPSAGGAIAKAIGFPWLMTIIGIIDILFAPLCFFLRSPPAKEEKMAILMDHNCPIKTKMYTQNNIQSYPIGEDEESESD

| SMILES | EC50 [nM] | IC50 [nM] |
| --- | --- | --- |
| CNc1ccc2c(CCN)cc(=O)oc2c1 | 3560 |  |
| COc1cc2c(cc1OC)C1CC(=O)C(CC(C)C)CN1CC2 (configuration not stated) [TETRABENAZINE] |  | 19.8 |
